The values below come from ChEMBL document CHEMBL1138676, “Liver-selective glucocorticoid antagonists: a novel treatment for type 2 diabetes” (J Med Chem, 2004).

One assay concerns the target T1, Estrogen receptor (Homo sapiens, UniProt P03372).
T1 sequence (P03372 whole entry): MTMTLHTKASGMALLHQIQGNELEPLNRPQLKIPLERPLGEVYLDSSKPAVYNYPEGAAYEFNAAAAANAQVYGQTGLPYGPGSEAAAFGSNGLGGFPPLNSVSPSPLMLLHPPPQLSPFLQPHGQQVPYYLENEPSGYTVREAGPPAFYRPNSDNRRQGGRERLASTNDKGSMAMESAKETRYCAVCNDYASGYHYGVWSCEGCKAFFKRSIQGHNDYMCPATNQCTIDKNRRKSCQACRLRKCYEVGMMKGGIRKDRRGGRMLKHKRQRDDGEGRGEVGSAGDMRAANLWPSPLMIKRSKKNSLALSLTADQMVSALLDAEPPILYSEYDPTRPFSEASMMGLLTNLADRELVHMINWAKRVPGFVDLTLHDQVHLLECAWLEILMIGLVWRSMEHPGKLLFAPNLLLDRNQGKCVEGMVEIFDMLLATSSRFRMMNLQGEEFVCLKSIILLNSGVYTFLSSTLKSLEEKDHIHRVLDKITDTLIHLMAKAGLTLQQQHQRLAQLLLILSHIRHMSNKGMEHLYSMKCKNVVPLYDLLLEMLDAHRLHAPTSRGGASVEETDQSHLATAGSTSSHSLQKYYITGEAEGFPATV
As to the kind of experiment: Inhibition of human Estrogen receptor alpha.

Assay [1] concerns the target T2, Thyroid hormone receptor beta (Homo sapiens, UniProt P10828).
T2 sequence (P10828 whole entry): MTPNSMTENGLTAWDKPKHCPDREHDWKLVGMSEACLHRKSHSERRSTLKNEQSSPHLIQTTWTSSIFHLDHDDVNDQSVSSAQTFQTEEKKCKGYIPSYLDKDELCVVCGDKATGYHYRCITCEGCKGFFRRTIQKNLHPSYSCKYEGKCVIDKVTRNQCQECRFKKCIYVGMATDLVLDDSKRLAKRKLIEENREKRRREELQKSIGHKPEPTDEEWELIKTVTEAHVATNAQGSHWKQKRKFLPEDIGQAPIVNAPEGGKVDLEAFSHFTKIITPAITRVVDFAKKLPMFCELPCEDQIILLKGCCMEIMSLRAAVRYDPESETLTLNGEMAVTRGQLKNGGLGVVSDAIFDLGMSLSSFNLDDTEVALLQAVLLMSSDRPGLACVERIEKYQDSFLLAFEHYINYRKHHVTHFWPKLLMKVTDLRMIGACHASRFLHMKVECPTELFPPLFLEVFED
As to the kind of experiment: Inhibition of human Thyroid hormone receptor beta.

The next assay has as its target T3, Androgen receptor (Homo sapiens, UniProt P10275).
T3 sequence (P10275 whole entry): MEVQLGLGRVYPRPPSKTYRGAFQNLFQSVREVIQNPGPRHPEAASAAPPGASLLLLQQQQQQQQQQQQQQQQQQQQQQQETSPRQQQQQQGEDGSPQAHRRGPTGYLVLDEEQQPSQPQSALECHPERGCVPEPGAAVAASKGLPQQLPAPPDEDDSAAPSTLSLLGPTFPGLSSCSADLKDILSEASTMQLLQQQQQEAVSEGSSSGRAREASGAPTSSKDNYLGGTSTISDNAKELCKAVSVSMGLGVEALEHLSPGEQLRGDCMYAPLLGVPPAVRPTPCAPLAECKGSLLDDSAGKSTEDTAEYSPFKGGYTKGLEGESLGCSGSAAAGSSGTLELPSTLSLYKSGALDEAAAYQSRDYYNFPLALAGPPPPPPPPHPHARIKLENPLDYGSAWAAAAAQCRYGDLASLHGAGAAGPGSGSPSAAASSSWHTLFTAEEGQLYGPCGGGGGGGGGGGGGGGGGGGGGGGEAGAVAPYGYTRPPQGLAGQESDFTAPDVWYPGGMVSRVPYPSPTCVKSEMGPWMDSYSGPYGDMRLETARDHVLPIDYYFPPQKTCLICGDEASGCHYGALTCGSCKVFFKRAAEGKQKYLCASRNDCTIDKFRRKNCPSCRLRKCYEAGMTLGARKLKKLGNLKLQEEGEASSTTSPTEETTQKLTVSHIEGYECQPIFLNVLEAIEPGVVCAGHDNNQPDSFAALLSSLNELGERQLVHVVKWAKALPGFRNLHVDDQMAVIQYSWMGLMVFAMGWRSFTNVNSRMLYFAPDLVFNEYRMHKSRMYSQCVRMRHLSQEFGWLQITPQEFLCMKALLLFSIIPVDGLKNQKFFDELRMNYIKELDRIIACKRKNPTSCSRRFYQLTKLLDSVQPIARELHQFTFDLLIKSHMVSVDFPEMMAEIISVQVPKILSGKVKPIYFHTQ

Assay [2] deals with T4, Mineralocorticoid receptor (Homo sapiens, UniProt P08235).
T4 sequence (P08235 whole entry): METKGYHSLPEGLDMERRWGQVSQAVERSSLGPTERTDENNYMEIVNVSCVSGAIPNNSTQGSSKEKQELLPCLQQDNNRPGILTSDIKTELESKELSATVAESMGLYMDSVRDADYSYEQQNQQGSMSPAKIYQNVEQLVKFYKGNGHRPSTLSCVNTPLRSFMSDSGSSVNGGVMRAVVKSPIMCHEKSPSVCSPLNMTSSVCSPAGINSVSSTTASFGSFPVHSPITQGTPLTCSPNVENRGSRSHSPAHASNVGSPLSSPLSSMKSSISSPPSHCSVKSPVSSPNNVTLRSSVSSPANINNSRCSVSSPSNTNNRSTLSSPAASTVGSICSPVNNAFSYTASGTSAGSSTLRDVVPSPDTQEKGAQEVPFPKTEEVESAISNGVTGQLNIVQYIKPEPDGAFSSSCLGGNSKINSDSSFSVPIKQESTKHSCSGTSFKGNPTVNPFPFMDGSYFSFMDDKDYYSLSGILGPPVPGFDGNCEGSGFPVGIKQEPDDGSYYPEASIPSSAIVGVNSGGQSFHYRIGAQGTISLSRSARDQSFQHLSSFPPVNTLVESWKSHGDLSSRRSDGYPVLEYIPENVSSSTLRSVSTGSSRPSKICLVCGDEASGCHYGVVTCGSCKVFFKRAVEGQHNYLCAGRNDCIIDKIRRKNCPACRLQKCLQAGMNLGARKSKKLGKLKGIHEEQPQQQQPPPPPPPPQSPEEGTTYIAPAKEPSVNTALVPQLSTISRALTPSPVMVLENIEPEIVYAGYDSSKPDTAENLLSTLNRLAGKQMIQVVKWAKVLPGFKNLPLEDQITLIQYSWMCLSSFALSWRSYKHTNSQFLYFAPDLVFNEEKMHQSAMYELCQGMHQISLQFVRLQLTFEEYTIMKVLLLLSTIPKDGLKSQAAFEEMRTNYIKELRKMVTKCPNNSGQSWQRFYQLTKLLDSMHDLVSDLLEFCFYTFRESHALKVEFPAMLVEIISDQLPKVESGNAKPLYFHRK
Description: Inhibition of human Mineralocorticoid receptor

Assay [3] concerns the target Glucocorticoid receptor (Rattus norvegicus) (UniProt P06536). As to the kind of experiment: Inhibition of glucocorticoid receptor mediated tyrosine amino transferase activity.

Glucocorticoid receptor (Rattus norvegicus), sequence (P06536 whole entry, looked up): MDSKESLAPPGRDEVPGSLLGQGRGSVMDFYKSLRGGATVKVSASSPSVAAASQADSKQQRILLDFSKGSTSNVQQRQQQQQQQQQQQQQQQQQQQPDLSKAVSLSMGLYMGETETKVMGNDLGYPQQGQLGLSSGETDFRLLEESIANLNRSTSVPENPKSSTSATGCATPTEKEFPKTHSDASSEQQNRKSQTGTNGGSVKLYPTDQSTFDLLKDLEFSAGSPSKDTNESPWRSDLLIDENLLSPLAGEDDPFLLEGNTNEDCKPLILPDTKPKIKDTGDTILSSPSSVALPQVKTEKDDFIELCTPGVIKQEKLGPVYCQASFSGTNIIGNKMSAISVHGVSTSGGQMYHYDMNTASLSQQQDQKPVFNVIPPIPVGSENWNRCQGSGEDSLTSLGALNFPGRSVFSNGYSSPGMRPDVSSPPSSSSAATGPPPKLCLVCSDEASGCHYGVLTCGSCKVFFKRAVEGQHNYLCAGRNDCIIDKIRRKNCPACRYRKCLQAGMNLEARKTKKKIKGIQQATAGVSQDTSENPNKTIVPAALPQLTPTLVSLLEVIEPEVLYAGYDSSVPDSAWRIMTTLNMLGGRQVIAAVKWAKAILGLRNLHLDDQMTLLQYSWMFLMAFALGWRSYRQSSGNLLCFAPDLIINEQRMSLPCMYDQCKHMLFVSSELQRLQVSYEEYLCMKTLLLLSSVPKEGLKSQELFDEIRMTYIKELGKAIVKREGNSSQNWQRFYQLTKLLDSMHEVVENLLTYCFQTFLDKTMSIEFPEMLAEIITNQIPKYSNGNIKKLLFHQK
Description for Androgen receptor: Inhibition of human androgen receptor

Usually Ki stands for a measure of affinity in units of concentration, obtained from inhibition or displacement. High values mean weaker binding, low ones tighter binding. Take `C#C[C@]1(O)CC[C@H]2[C@@H]3CCC4=CC(=O)CCC4=C3[C@@H](c3ccc(N(C)CCNC(=O)OC4CC[C@@]5(C)[C@@H](C4)C[C@@H](O)[C@@H]4[C@@H]5C[C@H](O)[C@]5(C)[C@@H]([C@H](C)CCC(=O)O)CC[C@@H]45)cc3)C[C@@]21C` (stereo not given in full): the Ki is over 0.2 µM on Estrogen receptor; over 2.25 µM in assay [1]; 0.0062 µM on Androgen receptor; over 1 µM in assay [2]; 0.33 µM in assay [3].

With `C#C[C@]1(O)CC[C@H]2[C@@H]3CCC4=CC(=O)CCC4=C3[C@@H](c3ccc(N(C)CCCC(=O)N(C)C4CC[C@@]5(C)[C@@H](C4)C[C@@H](O)[C@@H]4[C@@H]5C[C@H](O)[C@]5(C)[C@@H]([C@H](C)CCC(=O)O)CC[C@@H]45)cc3)C[C@@]21C` (stereo not given in full), the Ki is 0.0062 µM at Estrogen receptor; over 2.25 µM in assay [1]; 0.0074 µM at Androgen receptor; 0.19 µM in assay [2]; 0.06 µM in assay [3].

As to `C#C[C@]1(O)CC[C@H]2[C@@H]3CCC4=CC(=O)CCC4=C3[C@@H](c3ccc(N(C)CCCOC4CC[C@@]5(C)[C@@H](C4)C[C@@H](O)[C@@H]4[C@@H]5C[C@H](O)[C@]5(C)[C@@H]([C@H](C)CCC(=O)O)CC[C@@H]45)cc3)C[C@@]21C` (stereo not given in full), the Ki was determined as 0.0088 µM at Estrogen receptor; 1.9 µM in assay [1]; 0.0046 µM at Androgen receptor; 0.08 µM in assay [2]; 0.1 µM in assay [3].
